Test results as given in patent EP2679243B1, “Co-precipitate of one or more stilbene polyphenols in lamellar anionic solids, it's applications and related preparation method” (Fioretti, Bernard, priority 2012, dated 2014).
Values after ≈ are worked out from the molar mass of the structure shown.

Columns and labels:
[1] = Solubility in gastric fluid (indirect weighing and UV dosage); assay type: physicochemical; details: gastric fluid (FU; fluid mimicking the gastric fluid), simulated gastric fluid, thermodynamic from solid, gastric fluid pH 1.2, FU
Experimental: Solution 1is prepared by dissolving 258.3 mg of AlCl3 * 6H2O and 508.3 mg of MgCl2 * 6H2O in 18 mL of deionized water. […] A hydro-alcoholic solution is obtained by mixing the first and second solution and keeping it in a dark environment, agitated and in nitrogen flow. To this solution, under nitrogen flow, it has to be added 10 ml of NaOH solution 1 M up to a pH between 10-11. Solid precipitated is left to be digested for 15 minutes and then it is separated through centrifugation. The solid recovered, has to be washed 2 times using 30 ml of deionized water and finally using 20 ml of ethanol. Finally the solid recovered is dryed out at 50 °C. […] Width of signals is due to low crystallinity of hydrotalcitic matrix that can be ascribed to an amorphous phase. […] The presence of resveratrol is confirmed by DTA signal (black trace) in which it is possible to observe a sequence of exhotermic processes due to resveratrol degradation. […] Little changes are observed after a 120 minute irradiation at 340 nm (Figure 3C. black trace: not irradiated; red trace: irradiated). […] Dissolution tests in fluids mimicking the gastric fluid (pH: 1-2, FU) at 37 °C, stirred and characterized by a blade rotation speed equal to 60 rotation/min in not sink conditions.

[2] = cited from earlier work
[3] = Photostability under irradiation at 340 nm (absorption spectra); assay type: physicochemical
Source text: • Figure 1. Characterization of the product obtained from the co-precipitation process according to the invention described in example 1. […] Figure 1B. The thermogravimetric analysis defines weight percentage of resveratrol load in co-precipitate. […] Characterization of the product obtained from the co-precipitation process according to the invention described in example 2. Figure 2A. […] Figure 2B. The thermogravimetric analysis to calculate weight percentage of resveratrol in co-precipitate. […] Figure 2C. […] Samples are prepared in aqueous solution. […] Column Luna Phenomenex RP-18, eluents A)-H2O + TFA 0.1% e B- MeCN (Gradient: 5min: 5% B; 20 min: until 95% B; 5 min: up to 5% B, Temperature: 25°C, flow speed of eluent 1.0 mL/min, detector: DAD (190-400 nm)) • Figure 3. […] A) Absorption spectrum of crystalline resveratrol. […] The dissolution rate is measured to acid gastric buffer (pH 1.2, XII italian FU) in non-sink condition at a temperature of 37°C and while being agitated (agitation 60 rotation/minute).
Solution 1is prepared by dissolving 258.3 mg of AlCl3 * 6H2O and 508.3 mg of MgCl2 * 6H2O in 18 mL of deionized water. […] A hydro-alcoholic solution is obtained by mixing the first and second solution and keeping it in a dark environment, agitated and in nitrogen flow. To this solution, under nitrogen flow, it has to be added 10 ml of NaOH solution 1 M up to a pH between 10-11. […]

[4] = cited from earlier work; remark: listed apart in the source
[5] = compared to resveratrol; cited from earlier work

Row | solubility [1] [µg/mL] | photostability ([3]; aqueous solution, 30 minute irradiation at 340 nm) | photostability ([3]; solid, 60 minute irradiation at 340 nm) | Compound | pKa [2] | solubility in water [4] | maximum plasma peak [5]
1 | 44 (≈ 193 µM) | photo-instability | photo-degraded | Oc1ccc(/C=C/c2cc(O)cc(O)c2)cc1 [resveratrol, trans-resveratrol] | ~10 | about 30 mg/l | –
2 | – | – | – | resveratrol-L-arginine salt | – | – | increased
